Measured values published in PubChem BioAssay (NCI).
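Abbreviation: GI50, concentration required for 50% inhibition of growth. TGI marks complete inhibition of growth.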

Assays:
Assay in all cases: inhibition of tumour cell growth, NCI panel, 384-well format
HOP-92 NSCLC = test system: HOP-92 NSCLC
RXF 393 renal = test system: RXF 393 renal
SN12C renal = test system: SN12C renal
OVCAR-5 ovarian = test system: OVCAR-5 ovarian
M14 melanoma = test system: M14 melanoma
MALME-3M melanoma = test system: MALME-3M melanoma
SW-620 colon = test system: SW-620 colon
NCI/ADR-RES ovarian = test system: NCI/ADR-RES ovarian
CAKI-1 renal = test system: CAKI-1 renal
BT-549 breast = test system: BT-549 breast
SK-OV-3 ovarian = test system: SK-OV-3 ovarian
NCI-H226 lung = test system: NCI-H226 lung
HOP-62 NSCLC = test system: HOP-62 NSCLC
NCI-H23 lung = test system: NCI-H23 lung
U251 glioblastoma = test system: U251 glioblastoma
T-47D breast = test system: T-47D breast
MDA-MB-468 breast = test system: MDA-MB-468 breast
SNB-75 CNS = test system: SNB-75 CNS
A549 NSCLC = test system: A549 NSCLC
EKVX NSCLC = test system: EKVX NSCLC
LOX IMVI melanoma = test system: LOX IMVI melanoma
COLO 205 colon = test system: COLO 205 colon
OVCAR-8 ovarian = test system: OVCAR-8 ovarian
MCF7 breast = test system: MCF7 breast
PC-3 prostate = test system: PC-3 prostate
TK-10 renal = test system: TK-10 renal
786-0 renal = test system: 786-0 renal
HCC-2998 colon = test system: HCC-2998 colon
IGROV1 ovarian = test system: IGROV1 ovarian
SR leukemia = test system: SR leukemia
NCI-H522 lung = test system: NCI-H522 lung
ACHN renal = test system: ACHN renal
K-562 leukemia = test system: K-562 leukemia
OVCAR-3 ovarian = test system: OVCAR-3 ovarian
HCT-116 colon = test system: HCT-116 colon
KM12 colon = test system: KM12 colon
MDA-MB-231 breast = test system: MDA-MB-231 breast
HL-60(TB) leukemia = test system: HL-60(TB) leukemia
A498 renal = test system: A498 renal
OVCAR-4 ovarian = test system: OVCAR-4 ovarian
HCT-15 colon = test system: HCT-15 colon
MDA-MB-435 melanoma = test system: MDA-MB-435 melanoma
CCRF-CEM leukemia = test system: CCRF-CEM leukemia
NCI-H322M lung = test system: NCI-H322M lung
SF-268 CNS = test system: SF-268 CNS
RPMI-8226 leukemia = test system: RPMI-8226 leukemia
DU-145 prostate = test system: DU-145 prostate
MOLT-4 leukemia = test system: MOLT-4 leukemia
SNB-19 CNS = test system: SNB-19 CNS
SK-MEL-5 melanoma = test system: SK-MEL-5 melanoma
SK-MEL-28 melanoma = test system: SK-MEL-28 melanoma
SF-295 CNS = test system: SF-295 CNS
HT29 colon = test system: HT29 colon
HS 578T breast = test system: HS 578T breast
UO-31 renal = test system: UO-31 renal
SF-539 CNS = test system: SF-539 CNS
NCI-H460 NSCLC = test system: NCI-H460 NSCLC
UACC-257 melanoma = test system: UACC-257 melanoma

O=C(N[C@@H](Cc1coc2ccccc12)B(O)O)[C@@H]1C[C@H]2CC[C@@H]1O2
GI50 (HOP-92 NSCLC): 13.9 µM
TGI (HOP-92 NSCLC): 77.7 µM
GI50 (RXF 393 renal): 1.22 µM
TGI (RXF 393 renal): 2.91 µM
GI50 (SN12C renal): 10.7 µM
TGI (SN12C renal): > 100 µM
GI50 (OVCAR-5 ovarian): 8.44 µM
TGI (OVCAR-5 ovarian): > 100 µM
GI50 (M14 melanoma): 2.73 µM
TGI (M14 melanoma): 9.07 µM
GI50 (MALME-3M melanoma): 1.17 µM
TGI (MALME-3M melanoma): 3.19 µM
GI50 (SW-620 colon): 1.81 µM
TGI (SW-620 colon): 3.83 µM
GI50 (NCI/ADR-RES ovarian): 34.8 µM
TGI (NCI/ADR-RES ovarian): > 100 µM
GI50 (CAKI-1 renal): 3.24 µM
TGI (CAKI-1 renal): > 100 µM
GI50 (BT-549 breast): 2.26 µM
TGI (BT-549 breast): 5.49 µM
GI50 (SK-OV-3 ovarian): 4.71 µM
TGI (SK-OV-3 ovarian): 55.7 µM
GI50 (NCI-H226 lung): 0.163 µM
TGI (NCI-H226 lung): 0.439 µM
GI50 (HOP-62 NSCLC): 3.87 µM
TGI (HOP-62 NSCLC): 17.1 µM
GI50 (NCI-H23 lung): 3.7 µM
TGI (NCI-H23 lung): 27.3 µM
GI50 (U251 glioblastoma): 14.8 µM
TGI (U251 glioblastoma): 52.5 µM
GI50 (T-47D breast): 5.11 µM
TGI (T-47D breast): 45.8 µM
GI50 (MDA-MB-468 breast): 2.29 µM
TGI (MDA-MB-468 breast): 9.43 µM
GI50 (SNB-75 CNS): 2.99 µM
TGI (SNB-75 CNS): 11.2 µM
GI50 (A549 NSCLC): 10.7 µM
TGI (A549 NSCLC): > 100 µM
GI50 (EKVX NSCLC): 6.89 µM
TGI (EKVX NSCLC): 91.9 µM
GI50 (LOX IMVI melanoma): 3.99 µM
TGI (LOX IMVI melanoma): 16.8 µM
GI50 (COLO 205 colon): 21.2 µM
TGI (COLO 205 colon): > 100 µM
GI50 (OVCAR-8 ovarian): 30.9 µM
TGI (OVCAR-8 ovarian): > 100 µM
GI50 (MCF7 breast): 1.68 µM
TGI (MCF7 breast): > 100 µM
GI50 (PC-3 prostate): 27.6 µM
TGI (PC-3 prostate): > 100 µM
GI50 (TK-10 renal): 1.84 µM
TGI (TK-10 renal): 4.86 µM
GI50 ([…]-0 renal): 2.74 µM
TGI (786-0 renal): 13.9 µM
GI50 (HCC-2998 colon): 4.45 µM
TGI (HCC-2998 colon): 20.9 µM
GI50 (IGROV1 ovarian): 18.6 µM
TGI (IGROV1 ovarian): 92.1 µM
GI50 (SR leukemia): 0.219 µM
TGI (SR leukemia): 0.605 µM
GI50 (NCI-H522 lung): 2 µM
TGI (NCI-H522 lung): 4.74 µM
GI50 (ACHN renal): 1.09 µM
TGI (ACHN renal): > 100 µM
GI50 (K-562 leukemia): 7.21 µM
TGI (K-562 leukemia): > 100 µM
GI50 (OVCAR-3 ovarian): 1.38 µM
TGI (OVCAR-3 ovarian): 3.8 µM
GI50 (HCT-116 colon): 2.08 µM
TGI (HCT-116 colon): 8.46 µM
GI50 (KM12 colon): 5.64 µM
TGI (KM12 colon): 23.2 µM
GI50 (MDA-MB-231 breast): 4.86 µM
TGI (MDA-MB-231 breast): 23.3 µM
GI50 (HL-60(TB) leukemia): 0.355 µM
TGI (HL-60(TB) leukemia): 1.36 µM
GI50 (A498 renal): 1.62 µM
TGI (A498 renal): 5.91 µM
GI50 (OVCAR-4 ovarian): 7.3 µM
TGI (OVCAR-4 ovarian): 60.6 µM
GI50 (HCT-15 colon): 4.26 µM
TGI (HCT-15 colon): 15.3 µM
GI50 (MDA-MB-435 melanoma): 1.45 µM
TGI (MDA-MB-435 melanoma): 2.99 µM
GI50 (CCRF-CEM leukemia): 0.197 µM
TGI (CCRF-CEM leukemia): 0.504 µM
GI50 (NCI-H322M lung): 44.8 µM
TGI (NCI-H322M lung): > 100 µM
GI50 (SF-268 CNS): 2.45 µM
TGI (SF-268 CNS): 7.43 µM
GI50 (RPMI-8226 leukemia): 0.173 µM
TGI (RPMI-8226 leukemia): 0.359 µM
GI50 (DU-145 prostate): 4.28 µM
TGI (DU-145 prostate): > 100 µM
GI50 (MOLT-4 leukemia): 0.277 µM
TGI (MOLT-4 leukemia): 1.13 µM
GI50 (SNB-19 CNS): 4.7 µM
TGI (SNB-19 CNS): 23.1 µM
GI50 (SK-MEL-5 melanoma): 2.36 µM
TGI (SK-MEL-5 melanoma): 7.59 µM
GI50 (SK-MEL-28 melanoma): 1.33 µM
TGI (SK-MEL-28 melanoma): 4.17 µM
GI50 (SF-295 CNS): 1.49 µM
TGI (SF-295 CNS): 4.35 µM
GI50 (HT29 colon): 1.83 µM
TGI (HT29 colon): 4.44 µM
GI50 (HS 578T breast): 1.8 µM
TGI (HS 578T breast): 3.69 µM
GI50 (UO-31 renal): 3.36 µM
TGI (UO-31 renal): 13.4 µM
GI50 (SF-539 CNS): 1.51 µM
TGI (SF-539 CNS): 2.92 µM
GI50 (NCI-H460 NSCLC): 16.7 µM
TGI (NCI-H460 NSCLC): > 100 µM
GI50 (UACC-257 melanoma): 1.44 µM
TGI (UACC-257 melanoma): 5.25 µM
